# Test system: KRAS-mutant PDC multicell tumor spheroid viability
# Assay: Anticancer human tumor 521955-158-R2-J5-PDC patient-derived pancreatic carcinoma cell line growth inhibition [KRAS2]
# Settings: for viability, T/C: stronger effect = lower value
# Procedure, shortened: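 KRAS-mutant tumor cells were grown as spheroids with HUVEC endothelial cells and human MSCs as stroma. Targeted agents were tested alone and with KRAS pathway inhibitors. Doses started at or near clinical Cmax, or 10 microM, descending half-log.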
# [1] = curve of first compound, second compound 0.1 µM
# [2] = curve of first compound, second compound 0.316 µM
# [3] = curve of first compound, second compound 1 µM
# [4] = curve of first compound, second compound 3.16 µM
# [5] = second compound 0.1 µM, first compound 0.01 µM
# [6] = second compound 0.1 µM, first compound 0.0316 µM
# [7] = second compound 0.1 µM, first compound 0.1 µM
# [8] = second compound 0.316 µM, first compound 0.01 µM
# [9] = second compound 0.316 µM, first compound 0.0316 µM
# [10] = second compound 0.316 µM, first compound 0.1 µM
# [11] = second compound 1 µM, first compound 0.01 µM
# [12] = second compound 1 µM, first compound 0.0316 µM
# [13] = second compound 1 µM, first compound 0.1 µM
# [14] = second compound 3.16 µM, first compound 0.01 µM
# [15] = second compound 3.16 µM, first compound 0.0316 µM
# [16] = second compound 3.16 µM, first compound 0.1 µM
# 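Also: viability read after seven days of drug exposure.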
smiles,measurement,setting,value
CC(C)n1nc(-c2ccc3oc(N)nc3c2)c2c(N)ncnc21 + C=CC(=O)N1CCN(c2nc(OCC3CCCN3C)nc3c2CCN(c2cccc4cccc(C)c24)C3)CC1CC#N,IC50,"curve of first compound, second compound 0.0316 µM",9.53 nM
same,IC50,[1],6.8 nM
same,IC50,[2],6.39 nM
same,IC50,[3],3.33 nM
same,IC50,[4],< 0.316 nM
same,"viability, T/C","second compound 0.0316 µM, first compound 0.000316 µM",105%
same,"viability, T/C","second compound 0.0316 µM, first compound 0.001 µM",97.1%
same,"viability, T/C","second compound 0.0316 µM, first compound 0.00316 µM",68.1%
same,"viability, T/C","second compound 0.0316 µM, first compound 0.01 µM",49.6%
same,"viability, T/C","second compound 0.0316 µM, first compound 0.0316 µM",36.9%
same,"viability, T/C","second compound 0.0316 µM, first compound 0.1 µM",25.6%
same,"viability, T/C","second compound 0.1 µM, first compound 0.000316 µM",94.6%
same,"viability, T/C","second compound 0.1 µM, first compound 0.001 µM",90.7%
same,"viability, T/C","second compound 0.1 µM, first compound 0.00316 µM",62.5%
same,"viability, T/C",[5],43.6%
same,"viability, T/C",[6],31.5%
same,"viability, T/C",[7],24.3%
same,"viability, T/C","second compound 0.316 µM, first compound 0.000316 µM",92.6%
same,"viability, T/C","second compound 0.316 µM, first compound 0.001 µM",90.6%
same,"viability, T/C","second compound 0.316 µM, first compound 0.00316 µM",59%
same,"viability, T/C",[8],44.6%
same,"viability, T/C",[9],27%
same,"viability, T/C",[10],22.7%
same,"viability, T/C","second compound 1 µM, first compound 0.000316 µM",76.5%
same,"viability, T/C","second compound 1 µM, first compound 0.001 µM",70.2%
same,"viability, T/C","second compound 1 µM, first compound 0.00316 µM",49.1%
same,"viability, T/C",[11],33.5%
same,"viability, T/C",[12],23.3%
same,"viability, T/C",[13],18.3%
same,"viability, T/C","second compound 3.16 µM, first compound 0.000316 µM",33.7%
same,"viability, T/C","second compound 3.16 µM, first compound 0.001 µM",17.6%
same,"viability, T/C","second compound 3.16 µM, first compound 0.00316 µM",25.6%
same,"viability, T/C",[14],7.26%
same,"viability, T/C",[15],17%
same,"viability, T/C",[16],14.5%
COC(=O)c1ccc2c(C(=Nc3ccc(N(C)C(=O)CN4CCN(C)CC4)cc3)c3ccccc3)c(O)[nH]c2c1,"viability, T/C",compound 0.0316 µM,102% [middle of 5 runs]
same,"viability, T/C",compound 0.1 µM,105% [middle of 5 runs]
same,"viability, T/C",compound 10 µM,0.29% [middle of 5 runs]
same,IC50,curve of compound,2.06 µM [middle of 5 runs]
CC1COCCN1c1cc(-c2ccnn2C)c2ccnc(-c3ccn[nH]3)c2n1 (stereo not drawn) + C=CC(=O)N1CCN(c2nc(=O)n(-c3c(C)ccnc3C(C)C)c3nc(-c4c(O)cccc4F)c(F)cc23)C(C)C1,IC50,[1],30.2 nM
same,IC50,[2],40.3 nM
same,IC50,[3],30.1 nM
same,IC50,[4],24.3 nM
same,IC50,"curve of first compound, second compound 10 µM",11.5 nM
same,"viability, T/C",[5],101%
same,"viability, T/C",[6],47.9%
same,"viability, T/C",[7],10.5%
same,"viability, T/C","second compound 0.1 µM, first compound 0.316 µM",13.5%
same,"viability, T/C","second compound 0.1 µM, first compound 1 µM",24.1%
same,"viability, T/C","second compound 0.1 µM, first compound 3.16 µM",26.9%
same,"viability, T/C",[8],114%
same,"viability, T/C",[9],58.5%
same,"viability, T/C",[10],11.4%
same,"viability, T/C","second compound 0.316 µM, first compound 0.316 µM",13%
same,"viability, T/C","second compound 0.316 µM, first compound 1 µM",20.3%
same,"viability, T/C","second compound 0.316 µM, first compound 3.16 µM",28%
same,"viability, T/C",[11],102%
same,"viability, T/C",[12],47.6%
same,"viability, T/C",[13],10.5%
same,"viability, T/C","second compound 1 µM, first compound 0.316 µM",13.6%
same,"viability, T/C","second compound 1 µM, first compound 1 µM",25.6%
same,"viability, T/C","second compound 1 µM, first compound 3.16 µM",29%
same,"viability, T/C",[14],79.2%
same,"viability, T/C",[15],41.3%
same,"viability, T/C",[16],11.6%
same,"viability, T/C","second compound 3.16 µM, first compound 0.316 µM",13.7%
same,"viability, T/C","second compound 3.16 µM, first compound 1 µM",22.6%
same,"viability, T/C","second compound 10 µM, first compound 0.01 µM",54.1%
same,"viability, T/C","second compound 10 µM, first compound 0.0316 µM",18.1%
same,"viability, T/C","second compound 10 µM, first compound 0.1 µM",13.2%
same,"viability, T/C","second compound 10 µM, first compound 0.316 µM",18.1%
same,"viability, T/C","second compound 10 µM, first compound 1 µM",23.4%
same,"viability, T/C","second compound 10 µM, first compound 3.16 µM",25.5%
